One compound from patent US20260085058A1, “DEGRADERS OF SON OF SEVENLESS HOMOLOG 1” (H. LEE MOFFITT CANCER CENTER AND RESEARCH INSTITUTE, INC., priority 2022, published 2026) can be followed below.

This experiment addresses T1, SOS1 (Homo sapiens, UniProt Q07889).
T1 sequence (Q07889 1-1333): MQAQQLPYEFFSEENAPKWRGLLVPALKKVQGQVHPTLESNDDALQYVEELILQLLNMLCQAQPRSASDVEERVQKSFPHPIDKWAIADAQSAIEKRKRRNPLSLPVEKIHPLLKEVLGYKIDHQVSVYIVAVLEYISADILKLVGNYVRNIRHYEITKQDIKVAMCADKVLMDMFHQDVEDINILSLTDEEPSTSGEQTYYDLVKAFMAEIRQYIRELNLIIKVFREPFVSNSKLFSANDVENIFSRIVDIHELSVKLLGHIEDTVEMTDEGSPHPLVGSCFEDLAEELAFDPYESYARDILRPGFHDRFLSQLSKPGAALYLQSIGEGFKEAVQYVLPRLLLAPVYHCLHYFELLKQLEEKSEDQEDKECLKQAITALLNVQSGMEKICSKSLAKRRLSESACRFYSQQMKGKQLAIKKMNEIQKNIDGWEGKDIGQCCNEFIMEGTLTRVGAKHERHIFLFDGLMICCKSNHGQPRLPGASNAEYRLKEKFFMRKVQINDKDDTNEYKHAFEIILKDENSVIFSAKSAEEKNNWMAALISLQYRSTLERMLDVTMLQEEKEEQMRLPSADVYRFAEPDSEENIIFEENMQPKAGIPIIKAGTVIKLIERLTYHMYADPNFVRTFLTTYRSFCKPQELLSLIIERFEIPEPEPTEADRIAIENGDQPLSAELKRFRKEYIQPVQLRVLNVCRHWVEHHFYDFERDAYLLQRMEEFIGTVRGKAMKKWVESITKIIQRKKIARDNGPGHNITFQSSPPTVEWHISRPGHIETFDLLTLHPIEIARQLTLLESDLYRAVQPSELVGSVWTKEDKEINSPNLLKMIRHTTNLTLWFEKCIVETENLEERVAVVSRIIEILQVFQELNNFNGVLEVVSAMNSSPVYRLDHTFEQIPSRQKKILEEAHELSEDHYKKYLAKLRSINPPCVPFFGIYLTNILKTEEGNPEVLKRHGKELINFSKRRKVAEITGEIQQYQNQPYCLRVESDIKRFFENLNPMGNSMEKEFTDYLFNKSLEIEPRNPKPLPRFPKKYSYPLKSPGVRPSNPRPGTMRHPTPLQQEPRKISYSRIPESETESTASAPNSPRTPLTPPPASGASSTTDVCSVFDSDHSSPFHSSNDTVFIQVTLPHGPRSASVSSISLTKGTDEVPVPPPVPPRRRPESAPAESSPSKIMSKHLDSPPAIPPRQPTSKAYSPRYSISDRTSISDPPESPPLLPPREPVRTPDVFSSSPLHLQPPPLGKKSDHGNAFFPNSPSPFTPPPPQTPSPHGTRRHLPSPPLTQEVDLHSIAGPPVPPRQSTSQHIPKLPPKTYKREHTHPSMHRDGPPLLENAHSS
The experiment can be described thus: SOS1 degradation by immunoblot in colorectal cancer cell lines. The class given is cell-based. The settings on record: SW620 cells, 1 μM, different time points. Set-up: endogenous in cells; host or cells: SW620, HCT116, C2BB, SW1417. As to the method:
SW620, HCT116, C2BB, and SW1417 were purchased from the American Type Culture Collection. […] They were incubated under a 5% (v/v) CO2 atmosphere at 37° C.
Cells were plated in a 100 mm dish for incubation overnight before harvest for immunoblot. For drug treatment, cell confluency was checked prior to proceeding with the treatment. […] Approximately 40 μg protein samples were loaded into each well and separated by SDS-PAGE gel. After protein transfer onto nitrocellulose membranes, 5% skim milk in TBST was used to block the membranes for 1 hour at room temperature prior to incubation with primary antibodies overnight at 4° C. At the completion, a horseradish peroxidase-conjugated secondary antibody was applied at room temperature for 1 hour. The bands were visualized using Western Lightning Plus-ECL (PerkinElmer).
(Immunoblotting shows a protein as a band on a membrane.)

Regarding `COc1cc2c(N[C@H](C)c3cc(N)cc(C(F)(F)F)c3)nc(C)nc2cc1OCc1cccc2c1C(=O)N(C1CCC(=O)NC1=O)C2=O` (stereo partly drawn) [P2, 4-(((4-(((R)-1-(3-amino-S-(trifluoromethyl)phenyl)ethyl)amino)-6-methoxy-2-methylquinazolin-7-yl)oxy)methyl)-2-(2,6-dioxopiperidin-3-yl)isoindoline-1,3-dione], the “Time-dependent SOS1 degradation” value is “not observed”.
